# Patent US10202604B2, “Methods of using microRNA-141” (Stemirna Therapeutics Co., Ltd., priority 2016, dated 2019)
# Key:
# [1] = system: PPC-1 cells; test: In vivo tumor regeneration assay; set-up: species or system NOD/SCID mice; conditions: miR-141 over-expression in bulk cells; 100,000 cells per injection
# Protocol: (§1) Average % of CD44^+ cells (as determined by flow analysis; n=3-5) is indicated for each cell type (UD, undetectable). […] Purified CD44^+ Du145 cells were transfected with NC or miR-141 oligos (30 nM, 48 h) and then plated for clonal (1D & 1E) and sphere (1F) assays. Bars represent mean±SD. *, P<0.05; **, P<0.01. […] Shown are tumor images, cell numbers injected (100,000 cells per injection for all models), site of injection (s.c, subcutaneously) and days (d) when tumors were harvested. Tumor weight and incidences with corresponding P values are also indicated. ns, not significant. […] Purified CD44^+ HPCa202 cells were infected with Lenti-ctl or Lenti-141 (MOI 10, 72 h) and plated for clonal assay (1K) or sphere assays in Matrigel (1L & 1M). For 1st generation (1°) sphere assays, 1,000 cells per well were plated in triplicate for each group in 12-well plate and results scored in 11 days. For 2nd generation (2°), the 1° spheres were harvested, digested with Collagenase and Trypsin into single cells, 1,000 cells/well were plated, and results scored in 10 days. Quantification of the colonies was plotted (1 L; **P<0.01).
# (§2) Du145, LNCaP, PC3, PPC-1, VCaP cells were obtained from […] and cultured in RPMI-1640 (Life Technologies, Carlsbad, Calif.) plus 7% fetal bovine serum (FBS) with the exception of VCaP, which were cultured in Dulbecco's Modified Eagles Medium (DMEM, Life Technologies) supplemented with 15% fetal bovine serum. Human xenograft prostate tumors, LAPC9 [bone metastasis; positive for androgen receptor (AR) and prostate-specific antigen (PSA)], LAPC4 (lymph node metastasis; AR+ and PSA+), and Du145 ([…]; AR− and PSA−) were maintained in NOD/SCID mice. These cell and xenograft lines, which have been routinely utilized (13, 14, 18, 20, 21, 23, 25, 33) and authenticated by institutional CCSG Cell Line Characterization Core using short tandem repeat (STR) analysis and checked to be free of mycoplasma contamination using the Agilent (Santa Clara, Calif.) MycoSensor QPCR Assay Kit (cat.#302107). NOD/SCID mice were produced mostly from breeding colonies with occasional purchases from the Jackson Laboratories and maintained in standard conditions according to the Institutional Guidelines. All animal experiments were approved by Institutional Animal Care and Use Committee.
# (§3) As the CD44^+ prostate cancer cells are prominently devoid of miR-141, its expression in CD44^+ prostate cancer cells was restored and then cancer stem cell assays including stringent clonal (holoclone) and single cell-derived sphere-formation assays (13, 14, 23, 25, 33) were performed. […]
# [2] = system: CD44+ Du145 cells; test: In vivo tumor regeneration assay; set-up: species or system NOD/SCID mice; conditions: enforced miR-141 expression; 100,000 cells per injection
# Protocol: as §1, §2, §3
# [3] = system: bulk Du145 cells; test: In vivo tumor regeneration assay; set-up: species or system NOD/SCID mice; conditions: miR-141 over-expression in bulk cells; 100,000 cells per injection
# Protocol: as §1, §2, §3
# [4] = system: CD44+ LAPC9 cells; test: In vivo tumor regeneration assay; set-up: species or system NOD/SCID mice; conditions: enforced miR-141 expression; 100,000 cells per injection
# Protocol: as §1, §2, §3
# [5] = system: CD44hi PC3 cells; test: Dorsal prostate implantation, tumor growth and lung metastasis; type: in vivo, NOD/SCID mice; conditions: miR-141 via lentiviral infection; 100,000 cells into dorsal prostate
# Protocol: FACS-purified CD44^hi luciferase/GFP double-tagged PC3 cells were infected with Lenti-141 or Lenti-ctl (MOI 10) and 100,000 cells each were injected into the DP of NOD/SCID mice (n=9). Tumor growth and metastasis were monitored using bioluminescence imaging (IVIS). FIGS. 2A-2B show the representative images and quantification (in total photon flux) of primary tumors before termination of the experiment. FIGS. 2C-2D show the representative images (FIG. 2C) and quantification (FIG. 2D) of lung metastasis with the primary tumors covered. […] CD44^+ Du145 cells were infected with Lenti-ctl or Lenti-141 (MOI 10; 72 h) and cells were then injected into the DP of male NOD/SCID mice. Mice were terminated at day 56 and organs including lung were harvested for analyzing metastasis. Shown were representative IHC images of humanspecific Ki-67 staining. […] LAPC9-GFP cells were infected with TRIPZ-NS or TRIPZ-141 inducible lentivirus (MOI 10, 72 h) and CD44^+ cells were purified out by FACS. 100,000 cells each were injected into the DP of NOD/SCID mice and, from day 16 on, two groups of mice were treated with Dox (200 mg/kg body weight in feed). Tumor volumes were measure twice weekly (FIG. 2F). Mice were terminated at day 40 and endpoint tumors were harvested and weighted (FIG. 2G; incidence indicated in bars). […]
substance,measurement,setting,value
"miR-141: miR-141 mirVana mimics (Life Technologies); microRNA-141 oligonucleotide may have SEQ ID NO: 1; in some experiments over-expressed by lentiviral vectors (UAACACUGUCUGGUAAAGAUGG; listed as RNA, further chemistry not given here) [miR-141 mirVana mimics (Life Technologies); in some experiments over-expressed by lentiviral vectors]",tumor regeneration,[1],suppressed tumor regeneration
same,tumor growth and/or tumor incidence,[2],significantly suppressed tumor growth and/or reduced tumor incidence
same,tumor regeneration,[3],suppressed tumor regeneration
same,tumor growth and/or tumor incidence,[4],significantly suppressed tumor growth and/or reduced tumor incidence
same,lung metastasis,[5],less
same,primary tumors (size),[5],smaller
